Common to all, as to assay type: cell-based, human
Data set [1] relates to H3T6ph at the AREs of the KLK2 and FKBP5 promoters. Put plainly: ChIP with α-H3T6ph antibody in LNCaP cells. The following applies: for androgen-induced phosphorylation of H3T6 at the AREs of the KLK2 and FKBP5 promoters upon knockdown: siRNA transfection three days before harvesting, 1×10^−8 M R1881, versus control siRNA. The protocol: (§1) ChIP and Re-ChIP experiments were performed as described^3. LNCaP cells were cultured for 15 min (ChIP) or 210 min (Re-ChIP) in the presence or absence of 1×10^−8M R1881 as indicated. Three days before harvesting, cells were transfected with siRNA (control for PKCβI: 5′-[…]-3′(SEQ ID NO 3); PKCβI: 5′-[…]-3′ (SEQ ID NO 4) (FIG. 3 b, c, f-i); control for PRK1: 5′-[…]-3′ (SEQ ID NO 14); PRK1: 5′-[…]-3′ (SEQ ID NO: 15) (FIG. 3 d, e); Invitrogen) using RNAifect (Qiagen) following the manufacturer's instructions. Immunoprecipitation was performed with specific antibodies (α-AR #06-680 lot 33529 (Upstate Biotechnology), α-H3K4me1 #ab8895 lot 535654, α-H3T6ph #ab14102 lot 481643, α-H3 #ab1791 lot 172452, α-PKCβI S660ph #ab23513 lot 596904 (Abcam), α-PKCβI (C-16) #sc-209 lot 481643, (Santa Cruz), α-H3K4me2 #cs-035-100 lot A391001 (Diagenode), α-PRK1^3, and α-LSD1^2) on protein A-Sepharose 4B (GE-Healthcare). For PCR, 2 μl out of 50 μl DNA extract was used. PCR primers for FKBP5 (+351/+443), KLK2 (−343/−90), SCN1A, SCN2A, GAPDH, and U6 were described previously^1, 2, 6, 11.

For data set [2], the system named is AR. Put plainly: Western blot analysis of endogenous AR in LNCaP cells. The following applies: siRNA transfection (FIG. 3c, 3e right panels). The protocol:
Experiments were performed as described^2. Western blots were decorated as indicated.
On the technique in general: In western blotting, separated proteins are transferred to a membrane and probed.

The test system of data set [3] is AR, LSD1, PKCβI on AR-regulated genes. As to the kind of experiment: ChIP for occupancy of AR, LSD1 and PKCβI on AR target promoters in LNCaP cells. The protocol:
as §1

Data set [4] has as its system H3K4me2 and H3K4me1 at the KLK2 and FKBP5 promoters. As to the kind of experiment: ChIP with α-H3K4me2 and α-H3K4me1 antibodies in LNCaP cells. The protocol:
as §1

For data set [5], the system named is PKCβI S660ph at the KLK2 and FKBP5 promoters. As to the kind of experiment: ChIP with α-PKCβI S660ph antibody in LNCaP cells. Here is the method:
as §1

“Also recorded” adds a separate entry of the source.

In the case of “5′-CAUUGUCCUCGUAAGAGAUGCUAAA-3′ (listed as RNA, chemistry not given here) [siRNA directed against PKCβI]”, the “androgen-induced phosphorylation of H3T6 at the AREs of the KLK2 and FKBP5 promoters upon knockdown” value in data set [1] is “blocked; also recorded: blunts”. The “levels of endogenous AR upon knockdown” value in data set [2] is listed as “does not affect”. The “ligand-dependent recruitment of AR and presence of LSD1 on AR-regulated genes upon knockdown” value in data set [3] (siRNA transfection (FIG. 3b, c)) was “does neither affect”. Besides, the “H3K4me2 and H3K4me1 levels at the KLK2 and FKBP5 promoters upon knockdown” value in data set [4] (in the absence of R1881 (FIG. 3f, g)) was “Elevated levels”; in data set [4] (in the presence of R1881 (FIG. 3f, g)), “reduces H3K4me2 and H3K4me1 levels to those observed in the absence of R1881”.
In the case of “5′-GAACAUGAUCCAGACCUACAGCAAU-3′ (listed as RNA, chemistry not given here) [siRNA directed against PRK1, siRNA against Protein-kinase-C-related kinase 1 (PRK1), Invitrogen, reference compound]”, the “androgen-induced phosphorylation of H3T6 at the AREs of the KLK2 and FKBP5 promoters upon knockdown” value in data set [1] is “abolished”. The “levels of endogenous AR upon knockdown” value in data set [2] was “does neither affect”. Besides, in data set [3] (siRNA transfection (FIG. 3d, e)), the “presence of PKCβI on AR target promoters upon knockdown” value is reported as “does neither affect”. For the same compound, in data set [5] (siRNA transfection, with R1881 (FIG. 3d, e)), the “ligand-dependent activation of PKCβI (S660ph) upon knockdown” value was “blocked”.
As for `C[C@]1(O)CC[C@H]2[C@@H]3CCC4=CC(=O)CCC4=C3C=C[C@@]21C` [R1881, reference compound], the “phosphorylation of H3T6 at the AREs of the KLK2 and FKBP5 promoters on addition of ligand” value in data set [1] (1×10^−8 M R1881 versus absence of ligand (FIG. 3b, c)) is reported as “results in phosphorylation of H3T6”. Also, the “phosphorylation at S660 of PKCβI at the KLK2 and FKBP5 promoters on addition of ligand” value in data set [5] (R1881 versus absence of ligand (FIG. 3b, c)) was “androgen-induced phosphorylation at 5660 of PKCβI”. Further, the “levels of H3K4me2 and H3K4me1 at the KLK2 and FKBP5 promoters on addition of ligand” value in data set [4] (R1881 versus absence of ligand (FIG. 3f, g)) was “increased”.

These data come from patent publication US20120329854A1, “Methods and Compounds for the Diagnosis and Treatment for Cancer” (UNIVERSITÄTSKLINIKUM FREIBURG, priority 2009, published 2012).
